Source: patent US8569580B2, “Transformed plants or algae with highly expressed chloroplast protein BPG2” (Riken, priority 2010, dated 2013)

Tests used:
Arabidopsis bpg2-1 = assay: Hypocotyl phenotype when grown with Brz in the dark; assay type: in vivo, Arabidopsis thaliana; settings: bpg2-1 grown with Brz in the dark (data not shown)
wild-type Arabidopsis = assay: RT-PCR analysis of gene expression in dark-grown plants with Brz; assay type: in vivo, Arabidopsis thaliana; settings: wild type grown in the dark 7 days with Brz 0.1, 1, 3 μM
Source text: FIG. 6. Inducible expression of BPG2 by light and Brz. (a) RT-PCR analysis of BPG2 gene expression in different organs: root (R), stem (S), rosette leaf blade (LB), rosette leaf petiole (LP), cauline leaves (CL), and flowers (F) of wild-type Arabidopsis. ACT2 served as an internal control. (b) RT-PCR analysis of expression of BPG2, CAB, and rbcS after exposure to light. Total RNAs were extracted from the wild type germinated in the dark for 7 days and exposed to light for 0 (lane 1, 0), 0.5 (lane 2, 0.5), 1 (lane 3, 1), 2 (lane 4, 2), or 4 h (lane 5, 4), and from 7-day-old wild type under long-day conditions (16 h light and 8 h dark; lane 6, L). (c) RT-PCR analysis of expression of BPG2, CAB, rbcS, and DWF4 on Brz. Total RNAs were extracted from wild type germinated in the dark for 7 days with Brz.
Total RNA was extracted from wild type and bpg2 mutants with the RNeasy Plant mini kit (Qiagen). First strand cDNA was synthesized with Super Script III first-strand cDNA synthesis for RT (Invitrogen) and used as template. RT-PCR was performed with Ex Taq (Takara Bio). […]

[1] = molecular target: cytochrome P450 steroid C-22 hydroxylase encoded by the DWF4 gene (Arabidopsis thaliana, UniProt O64989); settings: Asami et al., 2000, 2001; cited from earlier work
[2] = test system: Arabidopsis thaliana seedlings; assay: Immunoblot analysis of chloroplast proteins; assay type: in vivo; settings: 1 μM Brz
Protocol: of wild type, bpg2-1, and bpg2-2 were ground in liquid nitrogen and extracted by boiling with two volumes/fresh weight of 1× Laemmli buffer [50 mM Tris-HCl (pH 6.8), 100 mM DTT, 2% (w/v) SDS, 0.1% (w/v) bromophenol blue, and 10% (w/v) glycerol] for immunoblot analysis of Rubisco LSU, SSU, and LHCP. Total proteins for immunoblot analysis of D1 protein were prepared as described (Nakajima et al., 1996). Proteins were separated by SDS-PAGE (12.5% acrylamide separating gel). After electrophoresis, the proteins were stained with Coomassie Brilliant Blue or electrophoretically transferred to Hybond ECL nitrocellulose membrane (Amersham). After blocking overnight in TBS (20 mM Tris, 0.137 M NaCl, pH7.4, 0.05% polyoxyethlene sorbital monolaurate) buffer containing 5% non-fat milk (Morinagamilk) at room temperature, the membrane was incubated in TBS buffer containing non-fat milk with polyclonal antibody for 1 h at room temperature. After washing in TBS buffer, the blots were incubated with horseradish peroxidase-conjugated secondary antibody (Promega for Rubisco L/S and LHCP, and Cosmo Bio for D1) for 1 h at room temperature, and the complexes were made visible with ECL Immoblin Western (Millipore). The polyclonal antibody against the tobacco Rubisco L/S complex was provided by F. Sato of Kyoto University. The polyclonal antibody against D1 and LHCP protein was obtained from Agrisera. LAS-4000 mini (Fuji Film) was used for detection.
To analyze BPG2 function with BR on chloroplast protein accumulation, we performed immunoblot analysis seedlings of wild type and bpg2 mutants in the light with and without Brz (FIG. 10). In wild type, Rubisco LSU protein from Brz-treated seedlings increased about 1.4-fold and D1 protein increased about 1.3-fold compared to that of no-Brz seedlings (FIG. 10a, b). […] The effect of BPG2 deficiency on LHCP protein was much smaller than on D1 and Rubisco LSU.

[3] = test system: Arabidopsis bpg2 mutants and wild type; assay: Northern blot analysis of photosynthesis gene expression; assay type: in vivo, Arabidopsis thaliana; settings: bpg2 mutants versus wild type, dark grown 5-day seedlings, 1 μM Brz
Protocol: FIG. 7. Chloroplast gene expression in bpg2 mutants. Total RNA was extracted from light grown 4-day-old seedlings (a), 3-week-old rosette leaves (b) and dark grown 5-day-seedling (c) of wild type (WT), bpg2-1, and bpg2-2. Northern blot analysis was carried out using probes for psbA and rbcL, encoded in the chloroplast, and rbcS, CAB, and 18S rRNA, encoded in the nucleus. (c) Seedlings were germinated with 0 or 1 μM Brz in the dark.
Total RNA was extracted from light grown 4-day-old seedlings, 3-week-old rosette leaves and dark grown 5-day-old seedlings of wild type, bpg2-1 and bpg2-2 with the RNeasy Plant Mini kit (Qiagen). Total RNA (3 μg) was separated in 1.2% agarose/0.66 M formaldehyde gels and blotted on Hybond N^+ (Amersham). After transfer, the ECL Direct Nucleic Acid Labeling and Detection system (GE Healthcare) was used for hybridization, and LAS-4000 mini (Fuji Film) was used for analysis of chemical fluorescence.

[4] = test system: Arabidopsis thaliana seedlings; assay: Measurement of chlorophyll a and b in seedlings; assay type: in vivo; settings: 4 days, long days
Protocol: Arabidopsis thaliana Columbia-0 (Col-0) was used as the wild type. For cotyledon analysis, plants were germinated and grown on ½ MS medium (Duchefa) containing 1.5% sucrose and 0.9% phytoagar (Duchefa), with or without Brz. Germinated plants were transferred to soil. Conditions in the growth chamber were 16 h light (100 μE m^−2 sec^−1 white light)/8 h dark at 22° C. […] Plants were homogenized in 80% (v/v) acetone. The chlorophyll content of the centrifuged supernatants was determined at 645 nm and 663 nm. Chlorophyll a and b content were determined according to Arnon (1949): Chlorophyll a (μg/mg fresh weight)=(12.7A663−[…])/mg fresh weight Chlorophyll b (μg/mg fresh weight)=(22.9A645−4.67A663)/mg fresh weight

[5] = wild type, germinated in the light for 3 days

Sequence of cytochrome P450 steroid C-22 hydroxylase encoded by the DWF4 gene (O64989 whole entry): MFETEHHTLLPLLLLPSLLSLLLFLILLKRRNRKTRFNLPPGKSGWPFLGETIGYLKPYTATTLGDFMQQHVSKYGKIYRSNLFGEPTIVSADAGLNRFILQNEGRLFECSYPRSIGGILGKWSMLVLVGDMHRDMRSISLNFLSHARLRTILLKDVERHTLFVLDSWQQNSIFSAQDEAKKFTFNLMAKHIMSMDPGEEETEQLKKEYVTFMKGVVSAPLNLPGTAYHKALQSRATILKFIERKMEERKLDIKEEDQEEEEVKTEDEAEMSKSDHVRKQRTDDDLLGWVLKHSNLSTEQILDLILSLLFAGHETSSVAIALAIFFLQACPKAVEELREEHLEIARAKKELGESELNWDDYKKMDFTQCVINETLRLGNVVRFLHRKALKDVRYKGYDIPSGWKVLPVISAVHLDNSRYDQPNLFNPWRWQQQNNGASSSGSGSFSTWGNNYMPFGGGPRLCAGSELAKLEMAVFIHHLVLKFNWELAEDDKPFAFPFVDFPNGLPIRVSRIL

In the case of `CC(O)(c1ccccc1)C(Cc1ccc(Cl)cc1)n1cncn1` (centres unmarked) [Brz, brassinazole], the hypocotyl phenotype (Arabidopsis bpg2-1) is reported as “same short hypocotyl as the wild type plants”, the BPG2 gene expression (wild-type Arabidopsis) is reported as “actually increased” and the “expression of CAB and rbcS” value (wild-type Arabidopsis) is reported as “increased”. The “binding to cytochrome P450 steroid C-22 hydroxylase (DWF4)” value [1] was “binds directly”, the “D1 protein of Brz-treated seedlings” value ([2]; bpg2 mutants, light 3 days) was “the same as in no-Brz seedlings” and the “Rubisco LSU protein of Brz-treated seedlings” value ([2]; bpg2 mutants, light 3 days) was “the same as in no-Brz seedlings”. The “induction of Rubisco LSU protein and D1 protein by Brz” value ([2]; clpB3 and clpC1 mutants, light 3 days) was “no induction”, the “D1 protein, Brz-treated compared to no-Brz seedlings” value [2, 5] was “about 1.3 fold” and the “Rubisco LSU protein, Brz-treated compared to no-Brz seedlings” value [2, 5] was “about 1.4 fold”. The “Rubisco SSU protein” value ([2]; wild type, light 3 days) was “increased”, the “nuclear encoded-LHCP protein” value ([2]; wild type, light 3 days) was “increased” and the “expression of psbA, rbcL, CAB and rbcS” value [3] was “to the same degree in bpg2 mutants as in wild type”. For the same compound, the “chlorophyll levels following Brz treatment” value ([4]; bpg2:35S-BPG2 transformants, Brz 1 μM) was “increase in chlorophyll levels” and the “endogenous chlorophyll a and b levels” value ([4]; wild-type seedlings, Brz 0.1 and 1 μM, light) was “increased”.
